Experimental data reported in the NIST ThermoML archive (doi:10.1021/je700152c).
Several values for one entry are separate records, joined by “and”; a condition that tells them apart may be missing. Identical values can stand only once.

Assay: molar heat capacity at saturation pressure

CCCCn1cc[n+](C)c1.Cc1ccc(S(=O)(=O)[O-])cc1 [1-butyl-3-methylimidazolium tosylate]
Details | molar heat capacity
125.01 K, Crystal 2 | 211.89 J/K/mol
125.12 K, Metastable crystal | 219.77 J/K/mol
125.41 K, Crystal 2 | 212.45 J/K/mol
126.82 K, Crystal 2 | 214.18 J/K/mol
126.86 K, Crystal 2 | 214.18 J/K/mol
126.95 K, Metastable crystal | 222.38 J/K/mol
127.27 K, Crystal 2 | 214.65 J/K/mol
128.68 K, Crystal 2 | 216.45 J/K/mol
128.72 K, Crystal 2 | 216.36 J/K/mol
128.79 K, Metastable crystal | 224.93 J/K/mol
129.12 K, Crystal 2 | 216.95 J/K/mol
130.54 K, Crystal 2 | 218.78 J/K/mol
130.57 K, Crystal 2 | 218.72 J/K/mol
130.63 K, Metastable crystal | 227.59 J/K/mol
130.97 K, Crystal 2 | 219.24 J/K/mol
132.4 K, Crystal 2 | 221.01 J/K/mol
132.43 K, Crystal 2 | 221.01 J/K/mol
132.46 K, Metastable crystal | 230.26 J/K/mol
132.83 K, Crystal 2 | 221.54 J/K/mol
134.26 K, Crystal 2 | 223.47 J/K/mol
134.29 K, Crystal 2 | 223.34 J/K/mol
134.3 K, Metastable crystal | 232.84 J/K/mol
134.69 K, Crystal 2 | 223.96 J/K/mol
136.12 K, Crystal 2 | 225.86 J/K/mol
136.14 K, Metastable crystal | 235.54 J/K/mol
136.15 K, Crystal 2 | 225.83 J/K/mol
136.55 K, Crystal 2 | 226.35 J/K/mol
137.98 K, Crystal 2 | 228.34 J/K/mol
137.98 K, Metastable crystal | 238.37 J/K/mol
138.01 K, Crystal 2 | 228.37 J/K/mol
138.41 K, Crystal 2 | 228.74 J/K/mol
139.81 K, Metastable crystal | 241.04 J/K/mol
139.84 K, Crystal 2 | 230.89 J/K/mol
139.87 K, Crystal 2 | 230.85 J/K/mol
140.27 K, Crystal 2 | 231.16 J/K/mol
141.65 K, Metastable crystal | 243.74 J/K/mol
141.7 K, Crystal 2 | 233.49 J/K/mol
141.73 K, Crystal 2 | 233.37 J/K/mol
142.13 K, Crystal 2 | 233.8 J/K/mol
143.48 K, Metastable crystal | 246.44 J/K/mol
143.56 K, Crystal 2 | 236.57 J/K/mol
143.59 K, Crystal 2 | 236.07 J/K/mol
143.98 K, Crystal 2 | 236.57 J/K/mol
145.31 K, Metastable crystal | 249.26 J/K/mol
145.41 K, Crystal 2 | 240.45 J/K/mol
145.44 K, Crystal 2 | 238.96 J/K/mol
145.83 K, Crystal 2 | 239.61 J/K/mol
147.15 K, Metastable crystal | 251.93 J/K/mol
147.26 K, Crystal 2 | 246.19 J/K/mol
147.3 K, Crystal 2 | 242.18 J/K/mol
147.68 K, Crystal 2 | 243.36 J/K/mol
148.98 K, Metastable crystal | 254.72 J/K/mol
149.09 K, Crystal 2 | 256.71 J/K/mol
149.15 K, Crystal 2 | 246.16 J/K/mol
149.52 K, Crystal 2 | 249.76 J/K/mol
150.8 K, Metastable crystal | 257.49 J/K/mol
150.89 K, Crystal 2 | 272.54 J/K/mol
150.98 K, Crystal 2 | 254.94 J/K/mol
151.34 K, Crystal 2 | 267.23 J/K/mol
152.63 K, Metastable crystal | 260.28 J/K/mol
152.68 K, Crystal 2 | 270.46 J/K/mol
152.77 K, Crystal 2 | 286.32 J/K/mol
153.11 K, Crystal 1 | 287.72 J/K/mol
154.46 K, Metastable crystal | 263.04 J/K/mol
154.51 K, Crystal 1 | 248.64 J/K/mol
154.55 K, Crystal 1 | 265.74 J/K/mol
154.91 K, Crystal 1 | 252.18 J/K/mol
156.28 K, Metastable crystal | 265.84 J/K/mol
156.37 K, Crystal 1 | 244.36 J/K/mol
156.4 K, Crystal 1 | 246.87 J/K/mol
156.77 K, Crystal 1 | 244.82 J/K/mol
158.1 K, Metastable crystal | 268.6 J/K/mol
158.25 K, Crystal 1 | 245.1 J/K/mol
158.27 K, Crystal 1 | 245.66 J/K/mol
158.64 K, Crystal 1 | 245.51 J/K/mol
159.92 K, Metastable crystal | 271.3 J/K/mol
160.13 K, Crystal 1 | 246.75 J/K/mol
160.14 K, Crystal 1 | 247 J/K/mol
160.51 K, Crystal 1 | 247.09 J/K/mol
161.74 K, Metastable crystal | 273.94 J/K/mol
162 K, Crystal 1 | 248.58 J/K/mol
162.02 K, Crystal 1 | 248.64 J/K/mol
162.38 K, Crystal 1 | 248.95 J/K/mol
163.55 K, Metastable crystal | 276.55 J/K/mol
163.88 K, Crystal 1 | 250.47 J/K/mol
163.89 K, Crystal 1 | 250.47 J/K/mol
164.25 K, Crystal 1 | 250.81 J/K/mol
165.36 K, Metastable crystal | 279.12 J/K/mol
165.76 K, Crystal 1 | 252.37 J/K/mol and 252.4 J/K/mol
166.12 K, Crystal 1 | 252.83 J/K/mol
167.18 K, Metastable crystal | 281.64 J/K/mol
167.63 K, Crystal 1 | 254.38 J/K/mol
167.64 K, Crystal 1 | 254.38 J/K/mol
168 K, Crystal 1 | 254.82 J/K/mol
168.99 K, Metastable crystal | 284.12 J/K/mol
169.51 K, Crystal 1 | 256.4 J/K/mol and 256.43 J/K/mol
169.87 K, Crystal 1 | 256.8 J/K/mol
170.8 K, Metastable crystal | 286.54 J/K/mol
171.38 K, Crystal 1 | 258.48 J/K/mol
171.39 K, Crystal 1 | 258.39 J/K/mol
171.74 K, Crystal 1 | 258.82 J/K/mol
172.6 K, Metastable crystal | 288.9 J/K/mol
173.25 K, Crystal 1 | 260.44 J/K/mol
173.26 K, Crystal 1 | 260.44 J/K/mol
173.61 K, Crystal 1 | 260.81 J/K/mol
174.41 K, Metastable crystal | 291.14 J/K/mol
175.13 K, Crystal 1 | 262.42 J/K/mol and 262.45 J/K/mol
175.48 K, Crystal 1 | 262.89 J/K/mol
176.21 K, Metastable crystal | 293.28 J/K/mol
177 K, Crystal 1 | 264.5 J/K/mol
177.01 K, Crystal 1 | 264.53 J/K/mol
177.35 K, Crystal 1 | 264.94 J/K/mol
178.02 K, Metastable crystal | 295.36 J/K/mol
178.87 K, Crystal 1 | 266.49 J/K/mol and 266.55 J/K/mol
179.21 K, Crystal 1 | 266.96 J/K/mol
179.82 K, Metastable crystal | 297.28 J/K/mol
180.74 K, Crystal 1 | 268.51 J/K/mol and 268.63 J/K/mol
181.08 K, Crystal 1 | 268.91 J/K/mol
181.62 K, Metastable crystal | 299.18 J/K/mol
182.6 K, Crystal 1 | 270.65 J/K/mol
182.94 K, Crystal 1 | 270.99 J/K/mol
183.43 K, Metastable crystal | 301.07 J/K/mol
184.47 K, Crystal 1 | 272.64 J/K/mol
184.8 K, Crystal 1 | 273.01 J/K/mol
185.23 K, Metastable crystal | 302.81 J/K/mol
186.33 K, Crystal 1 | 274.72 J/K/mol
186.66 K, Crystal 1 | 275.06 J/K/mol
187.02 K, Metastable crystal | 304.48 J/K/mol
188.19 K, Crystal 1 | 276.76 J/K/mol
188.51 K, Crystal 1 | 277.07 J/K/mol
188.82 K, Metastable crystal | 306.1 J/K/mol
190.05 K, Crystal 1 | 278.78 J/K/mol and 278.81 J/K/mol
190.37 K, Crystal 1 | 279.22 J/K/mol
190.62 K, Metastable crystal | 307.62 J/K/mol
191.9 K, Crystal 1 | 280.86 J/K/mol
191.91 K, Crystal 1 | 280.89 J/K/mol
192.22 K, Crystal 1 | 281.33 J/K/mol
192.42 K, Metastable crystal | 309.11 J/K/mol
193.75 K, Crystal 1 | 282.97 J/K/mol
193.77 K, Crystal 1 | 283 J/K/mol
194.07 K, Crystal 1 | 283.44 J/K/mol
194.22 K, Metastable crystal | 310.72 J/K/mol
195.6 K, Crystal 1 | 285.05 J/K/mol
195.62 K, Crystal 1 | 285.05 J/K/mol
195.92 K, Crystal 1 | 285.39 J/K/mol
196.01 K, Metastable crystal | 311.96 J/K/mol
197.45 K, Crystal 1 | 286.95 J/K/mol
197.47 K, Crystal 1 | 287.13 J/K/mol
197.77 K, Crystal 1 | 287.47 J/K/mol
197.81 K, Metastable crystal | 313.21 J/K/mol
199.3 K, Crystal 1 | 289.24 J/K/mol
199.32 K, Crystal 1 | 289.18 J/K/mol
199.61 K, Crystal 1 | 289.43 J/K/mol
199.61 K, Metastable crystal | 314.45 J/K/mol
201.21 K, Crystal 1 | 291.45 J/K/mol
201.24 K, Crystal 1 | 291.48 J/K/mol
201.47 K, Metastable crystal | 316.31 J/K/mol
201.52 K, Crystal 1 | 291.79 J/K/mol
203.18 K, Crystal 1 | 293.59 J/K/mol
203.21 K, Crystal 1 | 293.87 J/K/mol
203.39 K, Metastable crystal | 317.86 J/K/mol
203.49 K, Crystal 1 | 293.96 J/K/mol
205.15 K, Crystal 1 | 295.85 J/K/mol
205.18 K, Crystal 1 | 296.01 J/K/mol
